Data as given in patent US20240158446A1, “CYCLIC COMPOUND HAVING SELECTIVE INHIBITORY ACTION ON KRAS OVER HRAS AND NRAS” (CHUGAI SEIYAKU KABUSHIKI KAISHA, priority 2021, published 2024).
Where two headings read alike, the source gives them in different places. Where a SMILES comes first, the peptide text is derived from it. Bridges are numbered along the chain shown (N, C = ends). [ ]: non-standard residue; d: D form. The star is where a group is joined. hPhe(3-Cl-4-CF3) = N[C@@H](CCc1ccc(C(F)(F)F)c(Cl)c1)C(=O)O; NPrPhe(4-CF3) = CCCN[C@@H](Cc1ccc(C(F)(F)F)cc1)C(=O)O; NMePhe(4-Me) = CN[C@@H](Cc1ccc(C)cc1)C(=O)O; NMeGly(cPent) = CN[C@H](C(=O)O)C1CCCC1; Gly(cBu) = N[C@H](C(=O)O)C1CCC1; NMeD = CN[C@@H](CC(=O)O)C(=O)O; NMeL = CN[C@@H](CC(C)C)C(=O)O; NMeAbu = CC[C@H](NC)C(=O)O; Morpholide = C1CN(*)CCO1; NMeA = CN[C@@H](C)C(=O)O; NMeAib = CNC(C)(C)C(=O)O; Nle = CCCC[C@H](N)C(=O)O; Piperidide = C1CCN(*)CC1; Ac5c = NC1(C(=O)O)CCCC1; Aze = O=C(O)[C@@H]1CCN1; Sar = CNCC(=O)O

Legend:
[1] = target: GDP-bound KRAS wild-type protein (Homo sapiens, UniProt P01116); test: Binding to KRAS by surface plasmon resonance (SPR), Single Cycle Kinetics; conditions: GDP-bound KRAS wild-type protein, read-out: KRAS KD
[2] = target: GDP-bound NRAS wild-type protein (Homo sapiens, UniProt P01111); test: Binding to NRAS by surface plasmon resonance (SPR), Single Cycle Kinetics; conditions: SPR, GDP-bound NRAS wild-type protein vs GDP-bound KRAS wild-type protein
[3] = target: GDP-bound HRAS wild-type protein (Homo sapiens, UniProt P01112); test: Binding to HRAS by surface plasmon resonance (SPR), Single Cycle Kinetics; conditions: SPR, GDP-bound HRAS wild-type protein vs GDP-bound KRAS wild-type protein
[4] = SPR Single Cycle Kinetics, 1:1 binding model

GDP-bound KRAS wild-type protein, sequence (P01116 whole entry): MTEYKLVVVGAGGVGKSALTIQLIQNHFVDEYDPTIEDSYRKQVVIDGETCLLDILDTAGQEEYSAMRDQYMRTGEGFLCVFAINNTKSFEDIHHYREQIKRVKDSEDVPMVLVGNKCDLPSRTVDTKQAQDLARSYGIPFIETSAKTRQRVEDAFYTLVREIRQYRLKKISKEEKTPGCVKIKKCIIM
GDP-bound HRAS wild-type protein, sequence (P01112 whole entry): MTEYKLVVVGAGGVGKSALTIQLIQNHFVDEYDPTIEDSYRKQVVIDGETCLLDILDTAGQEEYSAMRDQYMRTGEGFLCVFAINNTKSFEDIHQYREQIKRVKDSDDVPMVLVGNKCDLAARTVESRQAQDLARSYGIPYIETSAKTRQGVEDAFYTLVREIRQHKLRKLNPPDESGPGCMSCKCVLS
GDP-bound NRAS wild-type protein, sequence (P01111 whole entry): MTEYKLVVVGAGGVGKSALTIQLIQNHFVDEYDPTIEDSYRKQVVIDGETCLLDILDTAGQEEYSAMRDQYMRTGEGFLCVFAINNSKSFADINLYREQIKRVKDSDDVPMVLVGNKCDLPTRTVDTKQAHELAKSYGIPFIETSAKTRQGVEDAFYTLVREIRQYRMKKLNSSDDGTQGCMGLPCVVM

| SMILES | Kd [1, 4] [nM] | Kd ([1]; SPR, Single Cycle Kinetics) [nM] | NRAS/KRAS (ratio of KD value for NRAS to KD value for KRAS) [2] | HRAS/KRAS (ratio of KD value for HRAS to KD value for KRAS) [3] | NRAS/KRAS (ratio of KD value with respect to NRAS to KD value with respect to KRAS) [2] | HRAS/KRAS (ratio of KD value with respect to HRAS to KD value with respect to KRAS) [3] |
| --- | --- | --- | --- | --- | --- | --- |
| CCCN1C(=O)[C@@H]2CCN2C(=O)[C@H](C)N(C)C(=O)[C@H]([C@@H](C)CC)NC(=O)[C@H](CC)N(C)C(=O)C[C@@H](C(=O)N2CCOCC2)N(C)C(=O)[C@H](C2CCCC2)N(C)C(=O)C2(CCCC2)NC(=O)[C@@H]2CCCN2C(=O)[C@H](CCc2ccc(C(F)(F)F)c(Cl)c2)NC(=O)CN(C)C(=O)[C@@H]1Cc1ccc(C(F)(F)F)cc1 [PP0194] ([NMeAbu]I[NMeA][Aze][NPrPhe(4-CF3)][Sar][hPhe(3-Cl-4-CF3)]P[Ac5c][NMeGly(cPent)][NMeD]-Morpholide; lactam N-11) | 0.09 | – | C (A compound having a KD ratio of 0.1 or more and less than 3 is denoted as C) | B (a compound having 3 or more and less than 10 is denoted as B) | – | – |
| CCCN1C(=O)CN(C)C(=O)CNC(=O)[C@H]([C@@H](C)CC)NC(=O)[C@H](CC(C)C)N(C)C(=O)C[C@@H](C(=O)N(C)C)NC(=O)[C@H](C2CCCC2)N(C)C(=O)C2(CCCC2)NC(=O)[C@@H]2CCCN2C(=O)[C@H](CCc2ccc(C(F)(F)F)c(Cl)c2)NC(=O)CN(C)C(=O)[C@@H]1Cc1ccc(C(F)(F)F)cc1 [PP0361] ([NMeL]IG[Sar][NPrPhe(4-CF3)][Sar][hPhe(3-Cl-4-CF3)]P[Ac5c][NMeGly(cPent)]D-NMe2; lactam N-11) | 0.72 | – | B (a compound having 3 or more and less than 10 is denoted as B) | C (A compound having a KD ratio of 0.1 or more and less than 3 is denoted as C) | – | – |
| CC[C@H](C)[C@@H]1NC(=O)[C@H](CC(C)C)N(C)C(=O)C[C@@H](C(=O)N2CCOCC2)N(C)C(=O)[C@H](C2CCCC2)N(C)C(=O)C2(CCCC2)NC(=O)[C@@H]2CCCN2C(=O)[C@H](CCc2ccc(C(F)(F)F)c(Cl)c2)NC(=O)CN(C)C(=O)[C@H](Cc2ccc(C)cc2)N2CCCC[C@@H](C2=O)N(C)C(=O)CN(C)C1=O [PP0316] | 0.054 | – | C (A compound having a KD ratio of 0.1 or more and less than 3 is denoted as C) | B (a compound having 3 or more and less than 10 is denoted as B) | – | – |
| CCCC[C@@H]1NC(=O)[C@H](CCc2ccc(C(F)(F)F)c(Cl)c2)NC(=O)CN(C)C(=O)[C@H](Cc2ccc(C)cc2)N(C)C(=O)[C@@H]2CCN2C(=O)[C@H](C)N(C)C(=O)[C@H]([C@@H](C)CC)NC(=O)[C@H](CC(C)C)N(C)C(=O)C[C@@H](C(=O)N2CCCCC2)N(C)C(=O)[C@H](CC(C)C)NC(=O)C(C)(C)N(C)C1=O [PP0047] ([NMeL]I[NMeA][Aze][NMePhe(4-Me)][Sar][hPhe(3-Cl-4-CF3)][Nle][NMeAib]L[NMeD]-Piperidide; lactam N-11) | 18 | – | C (A compound having a KD ratio of 0.1 or more and less than 3 is denoted as C) | C (A compound having a KD ratio of 0.1 or more and less than 3 is denoted as C) | – | – |
| CCCN1C(=O)CN(C)C(=O)[C@@H]2CCN2C(=O)[C@H](C2CCC2)NC(=O)[C@H](CC(C)C)N(C)C(=O)C[C@@H](C(=O)N2CCOCC2)N(C)C(=O)[C@H](C2CCCC2)N(C)C(=O)C2(CCCC2)NC(=O)[C@@H]2CCCN2C(=O)[C@H](CCc2ccc(C(F)(F)F)c(Cl)c2)NC(=O)CN(C)C(=O)[C@@H]1Cc1ccc(C(F)(F)F)cc1 [PP0305] ([NMeL][Gly(cBu)][Aze][Sar][NPrPhe(4-CF3)][Sar][hPhe(3-Cl-4-CF3)]P[Ac5c][NMeGly(cPent)][NMeD]-Morpholide; lactam N-11) | 0.96 | – | B (a compound having 3 or more and less than 10 is denoted as B) | C (A compound having a KD ratio of 0.1 or more and less than 3 is denoted as C) | – | – |
| CC[C@H](C)[C@@H]1NC(=O)[C@H](CC(C)C)N(C)C(=O)C[C@@H](C(=O)N2CCOCC2)N(C)C(=O)[C@H](C2CCCC2)N(C)C(=O)C2(CCCC2)NC(=O)[C@@H]2CCCN2C(=O)[C@H](CCc2cc(F)c(C(F)(F)F)c(F)c2)NC(=O)CN(C)C(=O)[C@H](Cc2ccc(C(F)(F)F)cc2)N2CCCCC[C@@H](C2=O)N(C)C(=O)CN(CC)C1=O [PP0483] | 34 | – | – | – | B (a compound having 3 or more and less than 10 is denoted as B) | B (a compound having 3 or more and less than 10 is denoted as B) |

Continued, in another order:

| Kd [1, 4] [nM] | Kd ([1]; SPR, Single Cycle Kinetics) [nM] | SMILES | NRAS/KRAS (ratio of KD value for NRAS to KD value for KRAS) [2] | HRAS/KRAS (ratio of KD value for HRAS to KD value for KRAS) [3] | NRAS/KRAS (ratio of KD value with respect to NRAS to KD value with respect to KRAS) [2] | HRAS/KRAS (ratio of KD value with respect to HRAS to KD value with respect to KRAS) [3] |
| --- | --- | --- | --- | --- | --- | --- |
| – | 1.6 | CCOC[C@H]1C(=O)N[C@@H]([C@@H](C)CC)C(=O)N(C)CC(=O)N(C)[C@H]2C/C=C\CCN(C2=O)[C@@H](CC2CCC(F)(F)CC2)C(=O)N(C)CC(=O)N[C@@H](CCc2ccc(C(F)(F)F)c(OC)c2)C(=O)N2C[C@H](OCC)C[C@H]2C(=O)N(C)C2(CCC2)C(=O)N(C)[C@@H](C(CC)CC)C(=O)N(C)[C@H](C(=O)N(C)C)CC(=O)N1C [PP2347] | A (a compound having 10 or more and less than 20 is denoted as A) | A (a compound having 10 or more and less than 20 is denoted as A) | – | – |
| – | 3.9 | CCO[C@@H]1C[C@H]2C(=O)NC3(CCC3)C(=O)N(C)[C@@H](C3CCCC3)C(=O)N(CC)[C@H](C(=O)N3CCOCC3)CC(=O)N(C)[C@@H](CC)C(=O)N[C@@H]([C@@H](C)CC)C(=O)N(C)CC(=O)N(C)[C@H]3CCCCCN(C3=O)[C@@H](Cc3ccc(C(F)(F)F)cc3)C(=O)N(C)CC(=O)N[C@@H](CCc3cc(F)c(C(F)(F)F)c(F)c3)C(=O)N2C1 [PP0944] | A (a compound having 10 or more and less than 20 is denoted as A) | A (a compound having 10 or more and less than 20 is denoted as A) | – | – |
| – | 0.58 | CCO[C@@H]1C[C@H]2C(=O)NC3(CC(C)(C)C3)C(=O)N(C)[C@@H](C(CC)CC)C(=O)N(C)[C@H](C(=O)N3CCCC3)CC(=O)N(C)[C@@H](CC)C(=O)N[C@@H]([C@@H](C)CC)C(=O)N(C)CC(=O)N(C)[C@H]3C/C=C\CCN(C3=O)[C@@H](Cc3ccc(C)cc3)C(=O)N(C)CC(=O)N[C@@H](CCc3cc(F)c(C(F)(F)F)c(F)c3)C(=O)N2C1 [PP2149] | A (a compound having 10 or more and less than 20 is denoted as A) | A (a compound having 10 or more and less than 20 is denoted as A) | – | – |
| 2.4 | – | CC[C@H](C)[C@@H]1NC(=O)[C@H](CC(C)C)N(C)C(=O)C[C@@H](C(=O)N2CCOCC2)N(C)C(=O)[C@H](C2CCCC2)N(C)C(=O)C2(CCCC2)NC(=O)[C@@H]2CCCN2C(=O)[C@H](CCc2cc(F)c(C(F)(F)F)c(F)c2)NC(=O)CN(C)C(=O)[C@H](Cc2ccc(C(F)(F)F)cc2)N2CCCCC[C@@H](C2=O)N(C)C(=O)CN(C)C1=O [PP0490] | – | – | B (a compound having 3 or more and less than 10 is denoted as B) | B (a compound having 3 or more and less than 10 is denoted as B) |
| 0.29 | – | CC[C@H](C)[C@@H]1NC(=O)[C@H](CC(C)C)N(C)C(=O)C[C@@H](C(=O)N2CCOCC2)N(C)C(=O)[C@H](C2CCC2)N(C)C(=O)C2(CCCC2)NC(=O)[C@@H]2CCCN2C(=O)[C@H](CCc2cc(F)c(C(F)(F)F)c(F)c2)NC(=O)CN(C)C(=O)[C@H](Cc2ccc(C(F)(F)F)cc2)N2CCCC[C@@H](C2=O)N(C)C(=O)CN(C)C1=O [PP0566] | – | – | B (a compound having 3 or more and less than 10 is denoted as B) | B (a compound having 3 or more and less than 10 is denoted as B) |
